Measured values as given in patent US6423707B1, “Nitroimidazole ester analogues and therapeutic applications” (California Pacific Medical Center, priority 2000, dated 2002).
≈ marks a conversion by molar mass, not a printed value. Where two headings read alike, the source gives them in different places.

Experiments:
[1] = system: metronidazole resistant H. pylori isolate (ATCC strain 43579); experiment: Helicobacter pylori microbicidal assay (Example 12); format: cell-based; settings: for MBC: Helicobacter pylori
[2] = system: Helicobactor pylori ATCC strain 43579; experiment: microbe, parasite or virus in culture; format: cell-based; settings: Helicobacter pylori, ATCC43579, 72 h, read-out: MBC H. Pylori 43579
[3] = system: Ohio State university Helicobactor pylori isolate working seed lot #061697; experiment: microbe, parasite or virus in culture; format: cell-based; settings: Helicobacter pylori, 72 h, read-out: MBC OSU Isolate 061697
[4] = system: another H pylori isolate (a virulent human isolate used in the germ-free pig model); experiment: microbe, parasite or virus in culture; format: cell-based; settings: Helicobacter pylori
[5] = ATCC43579, 72 h, read-out: MBC (Minimal Bactericidal Concentration), lowest concentration that killed 100% of the H. pylori working solution, ATCC strain 43579, metronidazole-resistant, 72 hours
[6] = relative to positive control (=1), ATCC strain 43579
[7] = ATCC43579, 72 h, read-out: MBC (Minimal Bactericidal Concentration)
[8] = ATCC43579, lowest concentration that killed 100% of the H. pylori working solution, ATCC strain 43579, metronidazole-resistant, 72 hours, read-out: MBC (Minimal Bactericidal Concentration)

Row | Compound | Bactericidal Activity Index [1] | MBC [2] [µg/mL] | MBC [3] [µg/mL] | Bactericidal Activity Index [1, 6] | further results
1 | 2-Methyl-5-nitro-1H-imidazole-1-ethyl 9,10-dihydro-9,10-dioxo-2-anthracenecarboxylate [Formula 9] | 7.4 | – | – | – | MBC (Minimal Bactericidal Concentration) [1]: 12 µg/mL
2 | 2-Methyl-5-nitro-1H-imidazole-1-ethyl 9-oxo-9H-thioxanthene-3-carboxylate [Formula 6] | 6.4 | – | – | – | MBC (Minimal Bactericidal Concentration) [1]: 14 µg/mL
3 | 2-methyl-5-nitro-1H-imidazole-1-ethyl 1-ethyl-1,4-dihydro-7-methyl-4-oxo-1,8-naphthyridine-3-carboxylate [Formula 10] | 12.7 | – | – | – | MBC (Minimal Bactericidal Concentration) [1]: 7 µg/mL
4 | Cc1ncc([N+](=O)[O-])n1CCOC(=O)c1cccnc1 [Formula 1C, 2-Methyl-5-nitro-1H-imidazole-1-ethyl Nicotinate] | – | 22.3 | 22.3 | 17.8 | MBC [1, 5]: 4 µg/mL; MBC (Minimal Bactericidal Concentration) ([1]; lowest concentration that killed 100% of the H. pylori working solution, ATCC strain 43579, metronidazole-resistant, 72 hours): 5 µg/mL
5 | Cc1ncc([N+](=O)[O-])n1CCOC(=O)c1ccc([N+](=O)[O-])o1 [Formula 2C, 2-Methyl-5-nitro-1H-imidazole-1-ethyl 5-nitro-2-furoate] | 29.7 | 12.6 | 12.6 | – | MBC [1, 7]: 3 µg/mL; melting point: 150 to 152 °C
6 | Cc1ncc([N+](=O)[O-])n1CCOC(=O)c1cc(C(=O)OCCn2c([N+](=O)[O-])cnc2C)cc([N+](=O)[O-])c1 [Formula 3C, Di (2-methyl-5-nitro-1H-imidazole-1-ethyl) 5-nitro-1,3-benzenedicarboxylate] | 29.7 | 19.8 | 19.8 | – | MBC [1, 7]: 3 µg/mL
7 | Cc1ncc([N+](=O)[O-])n1CCOC(=O)c1cc(-c2ccccc2)nc2ccccc12 [Formula 4C, 2-Methyl-5-nitro-1H-imidazole-1-ethyl 2-phenyl-4-quinolinecarboxylate] | – | 10.3 | 20.5 | 45 | MBC [1, 5]: 2 µg/mL; MBC [4]: 10.2 µg/mL; melting point: 122 to 124 °C
8 | Cc1ncc([N+](=O)[O-])n1CCOC(=O)N1c2ccccc2Sc2ccccc21 [Formula 5C, 2-Methyl-5-nitro-1H-imidazole-1-ethyl phenothiazine-10-carboxylate] | – | 10.3 | 10.3 | 44.5 | MBC [1, 5]: 2 µg/mL; MBC [4]: 10.2 µg/mL
9 | Cc1ncc([N+](=O)[O-])n1CCOC(=O)c1cc(=O)c2ccccc2o1 [Formula 7, 2-Methyl-5-nitro-1H-imidazole-1-ethyl 4-oxo-4H-1-benzopyran-2-carboxylate] | – | – | – | 8.9 | MBC [1, 8]: 10 µg/mL; melting point: 210 to 212 °C (dec.)
10 | Cc1ncc([N+](=O)[O-])n1CCOC(=O)c1ccc(-c2ccc(Cl)cc2[N+](=O)[O-])o1 [Formula 13] | – | – | – | – | MBC [1, 7]: > 97 µg/mL
11 | CCn1cc(C(=O)OCCn2c([N+](=O)[O-])cnc2C)c(=O)c2ccc(C)nc21 [Formula 15] | – | – | – | 8.9 | MBC [1, 8]: 15 µg/mL
12 | Cc1ncc([N+](=O)[O-])n1CCO [Positive Control, metronidazole, reference compound] | – | – | – | 1 | MBC [1, 8]: 89 µg/mL (≈ 520 µM)
